The results in this text go back to ChEMBL document CHEMBL1122266, “Ring-substituted 1,2-dialkylated 1,2-bis(hydroxyphenyl)ethanes. 1. Synthesis and estrogen receptor binding affinity of 2,2'- and 3,3'-disubstituted hexestrols” (J Med Chem, 1983).

The target in experiment [1] is Estrogen receptor (Bos taurus) (UniProt Q9XSB5+P49884). Briefly: Relative binding affinity for calf uterine estrogen receptor by 17-beta-[3H]-estradiol competition. The format is protein assay.
In experiment [2] the target is T1, Estrogen receptor (Mus musculus) (UniProt O08537+P19785). Briefly: Estrogenic activity in uterotrophic assay in mice at 0 ug/day. The format is functional.
T1 sequence (O08537 whole entry, looked up): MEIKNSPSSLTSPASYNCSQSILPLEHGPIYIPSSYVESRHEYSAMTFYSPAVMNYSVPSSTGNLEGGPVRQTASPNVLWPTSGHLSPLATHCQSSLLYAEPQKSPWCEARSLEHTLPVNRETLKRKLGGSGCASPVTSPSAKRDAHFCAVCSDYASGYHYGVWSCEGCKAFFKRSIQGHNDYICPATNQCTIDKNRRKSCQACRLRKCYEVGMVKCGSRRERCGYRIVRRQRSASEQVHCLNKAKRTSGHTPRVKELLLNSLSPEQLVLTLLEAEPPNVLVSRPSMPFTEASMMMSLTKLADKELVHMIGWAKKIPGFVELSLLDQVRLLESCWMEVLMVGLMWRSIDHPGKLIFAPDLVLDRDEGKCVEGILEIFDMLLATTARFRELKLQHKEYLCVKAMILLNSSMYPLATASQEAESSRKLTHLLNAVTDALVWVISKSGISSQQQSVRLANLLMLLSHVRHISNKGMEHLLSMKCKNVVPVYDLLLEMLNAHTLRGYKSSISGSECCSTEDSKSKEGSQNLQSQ
T1 sequence (P19785 whole entry, looked up): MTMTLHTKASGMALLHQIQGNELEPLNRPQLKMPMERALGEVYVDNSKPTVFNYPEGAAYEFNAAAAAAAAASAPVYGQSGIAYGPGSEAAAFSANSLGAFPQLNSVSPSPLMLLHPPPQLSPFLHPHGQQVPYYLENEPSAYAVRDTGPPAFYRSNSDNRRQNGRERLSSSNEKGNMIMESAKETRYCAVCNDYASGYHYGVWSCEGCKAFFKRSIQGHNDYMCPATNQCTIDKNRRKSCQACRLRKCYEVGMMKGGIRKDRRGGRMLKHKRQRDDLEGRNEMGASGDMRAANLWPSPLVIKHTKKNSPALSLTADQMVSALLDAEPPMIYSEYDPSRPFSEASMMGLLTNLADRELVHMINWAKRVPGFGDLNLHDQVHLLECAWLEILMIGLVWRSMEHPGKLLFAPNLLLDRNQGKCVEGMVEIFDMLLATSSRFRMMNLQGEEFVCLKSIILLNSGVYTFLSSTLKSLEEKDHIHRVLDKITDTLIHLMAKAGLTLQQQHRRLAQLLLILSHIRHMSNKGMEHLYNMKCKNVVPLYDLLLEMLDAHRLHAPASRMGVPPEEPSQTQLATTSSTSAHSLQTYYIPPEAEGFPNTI
Experiment [3] has as its target T1, Estrogen receptor (Mus musculus). Briefly: Estrogenic activity in uterotrophic assay in mice at 0.4 ug/day with estrone. The format is functional.
For experiment [4] the target is unchanged. Kind of experiment: Estrogenic activity in uterotrophic assay in mice at 10 ug/day. The format is functional.
For experiment [5] the target is unchanged. Kind of experiment: Estrogenic activity in uterotrophic assay in mice at 2 ug/day. The format is functional.
Experiment [6] has the same target. Kind of experiment: Estrogenic activity in uterotrophic assay in mice at 250 ug/day. The format is functional.
Experiment [7] shares this target. Kind of experiment: Estrogenic activity in uterotrophic assay in mice at 50 ug/day. The format is functional.
Experiment [8] shares this target. Kind of experiment: Anti-uterotrophic activity in mice at 100 ug/day. The format is functional.
The target is the same in experiment [9]. Kind of experiment: Anti-uterotrophic activity in mice at 250 ug/day. The format is functional.
Experiment [10] shares this target. Briefly: Anti-uterotrophic activity in mice at 5 ug/day. The format is functional.
The target is the same in experiment [11]. Briefly: Inhibition of anti-uterotrophic activity in mice at 100 ug/day (%inhibition=100-(E S,T-EV)x100). The format is functional.
Experiment [12] has the same target. Briefly: Inhibition of anti-uterotrophic activity in mice at 25 ug/day (%inhibition=100-(E S,T-EV)x100). The format is functional.
Experiment [13] shares this target. Kind of experiment: Inhibition of anti-uterotrophic activity in mice at 250 ug/day (%inhibition=100-(E S,T-EV)x100). The format is functional.
Experiment [14] has the same target. Briefly: Inhibition of anti-uterotrophic activity in mice at 5 ug/day (%inhibition=100-(E S,T-EV)x100). The format is functional.
The target is the same in experiment [15]. Kind of experiment: Anti-uterotrophic activity in mice at 25 ug/day.
Experiment [16] has the same target. Kind of experiment: Estrogenic activity in uterotrophic assay in mice at 500 ug/day.
The target is the same in experiment [17]. Briefly: Estrogenic activity in uterotrophic assay in mice at 1 ug/day. The format is functional.
Experiment [18] has the same target. Kind of experiment: Estrogenic activity in uterotrophic assay in mice at 100 ug/day. The format is functional.
Experiment [19] shares this target. Kind of experiment: Estrogenic activity in uterotrophic assay in mice at 1000 ug/day. The format is functional.
Experiment [20] has the same target. Briefly: Anti-uterotrophic activity in mice at 0 ug/day. The format is functional.

In general, inhibition refers to the change of the read-out against control, counted positive when it falls. Higher therefore signals a strong effect.

The structures appear in SMILES notation. Where “and” joins values, the source holds several entries; their conditions need not be identical. Equal entries are not always repeated.

`CCC(c1ccc(O)c(O)c1)C(CC)c1ccc(O)c(O)c1` (stereo not given) returned a relative binding affinity (RBA) in experiment [1] of 20. The Effect in [2] was found to be 15.4 mg 100g-1; in experiment [3], 54.3 mg 100g-1; in experiment [4], 34.7 mg 100g-1; in experiment [5], 24.6 mg 100g-1; in experiment [6], 50.1 mg 100g-1; in [7], 39.1 mg 100g-1. The Effect stood at 39.2 mg 100g-1 in [8]; 43.6 mg 100g-1 in experiment [9]; 24.1 mg 100g-1 in experiment [10]; 37 mg 100g-1 in experiment [15]; 49.8 mg 100g-1 in [16]. Further, the inhibition was found to be 13% in [11], 20% in experiment [12], 0% in experiment [13] and 59% in experiment [14].

Turning to `CCC(c1ccc(O)c(Br)c1)C(CC)c1ccc(O)c(Br)c1` (stereo not given), in experiment [1], the relative binding affinity (RBA) stood at 0.25.

Regarding `CCC(c1ccc(O)c(C(C)=O)c1)C(CC)c1ccc(O)c(C(C)=O)c1` (stereo not given), in experiment [1], the relative binding affinity (RBA) is below 0.01.

Take `CCc1cc(C(CC)C(CC)c2ccc(O)c(CC)c2)ccc1O` (stereo not given): the relative binding affinity (RBA) in experiment [1] was determined as 1.2.

In turn, `CCC(c1ccc(O)cc1O)C(CC)c1ccc(O)cc1O` (stereo not given) showed a relative binding affinity (RBA) in [1] of 32. Besides, the Effect in experiment [2] is 16.4 mg 100g-1; in [3], 51.4 mg 100g-1; in experiment [17] it was 53.6 mg 100g-1; in experiment [4], 41.6 mg 100g-1.

The molecule `CCC(c1ccc(O)c(C)c1)C(CC)c1ccc(O)c(C)c1` (stereo not given) gave a relative binding affinity (RBA) in experiment [1] of 8.1. The Effect in [18] came to 33.8 mg 100g-1; in experiment [19], 34 mg 100g-1; in experiment [2], 10 mg 100g-1; in experiment [3], 44.9 mg 100g-1; in experiment [17] it was 48.7 mg 100g-1; in experiment [4] it was 40 mg 100g-1.

`CCOCc1cc(C(CC)C(CC)c2ccc(O)c(COCC)c2)ccc1O` (stereo not given): the relative binding affinity (RBA) in experiment [1] was found to be 0.18.

In experiment [1], `CCc1cc(O)ccc1C(CC)C(CC)c1ccc(O)cc1CC` (stereo not given) showed a relative binding affinity (RBA) of 3.7.

`CCC(c1ccc(O)cc1Cl)C(CC)c1ccc(O)cc1Cl` (stereo not given) yielded a relative binding affinity (RBA) in [1] of 2.2.

In the case of `CCC(c1ccc(O)c(COC)c1)C(CC)c1ccc(O)c(COC)c1` (stereo not given), the relative binding affinity (RBA) in experiment [1] was 0.55.

In experiment [1], `CCC(c1ccc(O)c(F)c1)C(CC)c1ccc(O)c(F)c1` (stereo not given) returned a relative binding affinity (RBA) of 16. In addition, the Effect in experiment [18] worked out at 40.4 mg 100g-1; in experiment [19] it was 38.8 mg 100g-1; in experiment [2] it was 10 mg 100g-1; in experiment [3] it was 44.9 mg 100g-1; in experiment [17], 50.7 mg 100g-1; in [4] it was 43.4 mg 100g-1.

`CCC(c1ccc(O)cc1Br)C(CC)c1ccc(O)cc1Br` (stereo not given) gave a relative binding affinity (RBA) in experiment [1] of 1.8.

In turn, `CCC(c1ccc(O)c(Cl)c1)C(CC)c1ccc(O)c(Cl)c1` (stereo not given) showed a relative binding affinity (RBA) in experiment [1] of 1.6.

In the case of `CCC(c1ccc(O)c([N+](=O)[O-])c1)C(CC)c1ccc(O)c([N+](=O)[O-])c1` (stereo not given), the relative binding affinity (RBA) in experiment [1] amounted to 0.14.

Molecule `CCC(c1ccc(O)cc1F)C(CC)c1ccc(O)cc1F` (stereo not given) showed a relative binding affinity (RBA) in [1] of 6.5. Besides, the Effect in [18] turned out to be 34.3 mg 100g-1; in experiment [19], 30.5 mg 100g-1; in [2], 16.9 mg 100g-1; in [3], 43.9 mg 100g-1; in [17] it was 47.6 mg 100g-1; in experiment [4], 39 mg 100g-1.

`CCC(c1ccc(O)c(CO)c1)C(CC)c1ccc(O)c(CO)c1` (stereo not given) had a relative binding affinity (RBA) in [1] of 0.71.

Turning to `CCC(c1ccc(O)c(CN(C)C)c1)C(CC)c1ccc(O)c(CN(C)C)c1` (stereo not given), the relative binding affinity (RBA) in experiment [1] was 0.04.

On to `CCC(c1ccc(O)c(N)c1)C(CC)c1ccc(O)c(N)c1` (stereo not given), for which, in [1], the relative binding affinity (RBA) was found to be 5.6. For the same molecule, the Effect came to 44.7 mg/100 g in [18]; 45.6 mg 100g-1 in [19]; 16.9 mg 100g-1 in experiment [2]; 50.4 mg/100 g in experiment [3]; 23.3 mg 100g-1 in [17]; 24.3 mg 100g-1 in [4]. In addition, the Effect in experiment [20] is 50.4 mg 100g-1 and 19.4 mg 100g-1; in experiment [15], 34.6 mg 100g-1. For the same molecule, the inhibition in [12] was 0%; in experiment [14] it was 78%.

The molecule `CC[C@H](c1ccc(O)cc1)[C@@H](CC)c1ccc(O)cc1` gave a relative binding affinity (RBA) in experiment [1] of 27.

On to `CCC(c1ccc(O)cc1C)C(CC)c1ccc(O)cc1C` (stereo not given), for which, in experiment [1], the relative binding affinity (RBA) worked out at 8.5. Besides, the Effect is 38.4 mg 100g-1 in experiment [18]; 32.6 mg 100g-1 in experiment [19]; 16.9 mg 100g-1 in experiment [2]; 43.9 mg 100g-1 in [3]; 46.3 mg 100g-1 in experiment [17]; 36.6 mg 100g-1 in experiment [4].

In [1], `CCC(c1ccc(O)c(N(C)C)c1)C(CC)c1ccc(O)c(N(C)C)c1` (stereo not given) returned a relative binding affinity (RBA) below 0.01.

`CCC(c1ccc(O)c(I)c1)C(CC)c1ccc(O)c(I)c1` (stereo not given) registered a relative binding affinity (RBA) in experiment [1] of 0.17.
